Experimental data reported in PubChem BioAssay (NCI).
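At the GI50, growth is halved. The concentration for full growth arrest is given as TGI.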

Tests used:
Experiment in all cases: NCI tumour cell line growth inhibition, 384-well format
A549 NSCLC = system: A549 NSCLC
CCRF-CEM leukemia = system: CCRF-CEM leukemia
SK-MEL-5 melanoma = system: SK-MEL-5 melanoma
T-47D breast = system: T-47D breast
OVCAR-3 ovarian = system: OVCAR-3 ovarian
MCF7 breast = system: MCF7 breast
EKVX NSCLC = system: EKVX NSCLC
CAKI-1 renal = system: CAKI-1 renal
M14 melanoma = system: M14 melanoma
OVCAR-4 ovarian = system: OVCAR-4 ovarian
NCI/ADR-RES ovarian = system: NCI/ADR-RES ovarian
SF-539 CNS = system: SF-539 CNS
UO-31 renal = system: UO-31 renal
IGROV1 ovarian = system: IGROV1 ovarian
UACC-62 melanoma = system: UACC-62 melanoma
MDA-MB-468 breast = system: MDA-MB-468 breast
MALME-3M melanoma = system: MALME-3M melanoma
SW-620 colon = system: SW-620 colon
LOX IMVI melanoma = system: LOX IMVI melanoma
SK-MEL-2 melanoma = system: SK-MEL-2 melanoma
NCI-H23 lung = system: NCI-H23 lung
DU-145 prostate = system: DU-145 prostate
SF-295 CNS = system: SF-295 CNS
SK-OV-3 ovarian = system: SK-OV-3 ovarian
SN12C renal = system: SN12C renal
KM12 colon = system: KM12 colon
SR leukemia = system: SR leukemia
MDA-MB-231 breast = system: MDA-MB-231 breast
BT-549 breast = system: BT-549 breast
A498 renal = system: A498 renal
MDA-MB-435 melanoma = system: MDA-MB-435 melanoma
HL-60(TB) leukemia = system: HL-60(TB) leukemia
K-562 leukemia = system: K-562 leukemia
NCI-H522 lung = system: NCI-H522 lung
OVCAR-5 ovarian = system: OVCAR-5 ovarian
COLO 205 colon = system: COLO 205 colon
NCI-H226 lung = system: NCI-H226 lung
NCI-H460 NSCLC = system: NCI-H460 NSCLC
SNB-19 CNS = system: SNB-19 CNS
MOLT-4 leukemia = system: MOLT-4 leukemia
RPMI-8226 leukemia = system: RPMI-8226 leukemia
U251 glioblastoma = system: U251 glioblastoma
HCT-15 colon = system: HCT-15 colon
HOP-92 NSCLC = system: HOP-92 NSCLC
HT29 colon = system: HT29 colon
NCI-H322M lung = system: NCI-H322M lung
HS 578T breast = system: HS 578T breast

COc1ncc(-c2nc3c(n2C(C)C)[C@H](c2ccc(Cl)cc2)N(c2cc(Cl)cn(C)c2=O)C3=O)c(OC)n1
GI50 (A549 NSCLC): 16.6 µM
TGI (A549 NSCLC): 58.7 µM
GI50 (CCRF-CEM leukemia): 22.9 µM
TGI (CCRF-CEM leukemia): 51.7 µM
GI50 (SK-MEL-5 melanoma): 12.7 µM
TGI (SK-MEL-5 melanoma): 29.6 µM
GI50 (T-47D breast): 34.3 µM
TGI (T-47D breast): > 91.8 µM
GI50 (OVCAR-3 ovarian): 33.3 µM
TGI (OVCAR-3 ovarian): 90 µM
GI50 (MCF7 breast): 24.7 µM
TGI (MCF7 breast): > 100 µM
GI50 (EKVX NSCLC): 58.7 µM
TGI (EKVX NSCLC): > 100 µM
GI50 (CAKI-1 renal): 6.27 µM
TGI (CAKI-1 renal): > 64.1 µM
GI50 (M14 melanoma): 48.5 µM
TGI (M14 melanoma): > 100 µM
GI50 (OVCAR-4 ovarian): 28.9 µM
TGI (OVCAR-4 ovarian): > 100 µM
GI50 (NCI/ADR-RES ovarian): 62.6 µM
TGI (NCI/ADR-RES ovarian): > 100 µM
GI50 (SF-539 CNS): > 73 µM
TGI (SF-539 CNS): > 100 µM
GI50 (UO-31 renal): 12.4 µM
TGI (UO-31 renal): 28.2 µM
GI50 (IGROV1 ovarian): 24.9 µM
TGI (IGROV1 ovarian): > 100 µM
GI50 (UACC-62 melanoma): 5.25 µM
TGI (UACC-62 melanoma): 22.7 µM
GI50 (MDA-MB-468 breast): 17.3 µM
TGI (MDA-MB-468 breast): 39.6 µM
GI50 (MALME-3M melanoma): 12.7 µM
TGI (MALME-3M melanoma): 42.5 µM
GI50 (SW-620 colon): 53.5 µM
TGI (SW-620 colon): 97.8 µM
GI50 (LOX IMVI melanoma): 18.9 µM
TGI (LOX IMVI melanoma): > 100 µM
GI50 (SK-MEL-2 melanoma): > 100 µM
TGI (SK-MEL-2 melanoma): > 100 µM
GI50 (NCI-H23 lung): 60.6 µM
TGI (NCI-H23 lung): > 100 µM
GI50 (DU-145 prostate): 64.4 µM
TGI (DU-145 prostate): > 100 µM
GI50 (SF-295 CNS): 63.6 µM
TGI (SF-295 CNS): > 100 µM
GI50 (SK-OV-3 ovarian): > 76 µM
TGI (SK-OV-3 ovarian): > 100 µM
GI50 (SN12C renal): > 93.2 µM
TGI (SN12C renal): > 100 µM
GI50 (KM12 colon): 49.8 µM
TGI (KM12 colon): > 100 µM
GI50 (SR leukemia): 1.96 µM
TGI (SR leukemia): 10.9 µM
GI50 (MDA-MB-231 breast): 44.6 µM
TGI (MDA-MB-231 breast): > 100 µM
GI50 (BT-549 breast): 36.2 µM
TGI (BT-549 breast): > 100 µM
GI50 (A498 renal): 9.44 µM
TGI (A498 renal): 52.9 µM
GI50 (MDA-MB-435 melanoma): 60.3 µM
TGI (MDA-MB-435 melanoma): > 100 µM
GI50 (HL-60(TB) leukemia): 16.7 µM
TGI (HL-60(TB) leukemia): 31.1 µM
GI50 (K-562 leukemia): 33.2 µM
TGI (K-562 leukemia): > 100 µM
GI50 (NCI-H522 lung): 48.4 µM
TGI (NCI-H522 lung): > 100 µM
GI50 (OVCAR-5 ovarian): > 100 µM
TGI (OVCAR-5 ovarian): > 100 µM
GI50 (COLO 205 colon): 62.6 µM
TGI (COLO 205 colon): > 100 µM
GI50 (NCI-H226 lung): 13 µM
TGI (NCI-H226 lung): 30.2 µM
GI50 (NCI-H460 NSCLC): 14.2 µM
TGI (NCI-H460 NSCLC): 45.5 µM
GI50 (SNB-19 CNS): > 94.8 µM
TGI (SNB-19 CNS): > 100 µM
GI50 (MOLT-4 leukemia): 2.06 µM
TGI (MOLT-4 leukemia): 5.15 µM
GI50 (RPMI-8226 leukemia): 20.7 µM
TGI (RPMI-8226 leukemia): 42.7 µM
GI50 (U251 glioblastoma): 65.4 µM
TGI (U251 glioblastoma): > 100 µM
GI50 (HCT-15 colon): 36 µM
TGI (HCT-15 colon): > 100 µM
GI50 (HOP-92 NSCLC): 24.8 µM
TGI (HOP-92 NSCLC): > 92.2 µM
GI50 (HT29 colon): 51.5 µM
TGI (HT29 colon): > 100 µM
GI50 (NCI-H322M lung): > 96 µM
TGI (NCI-H322M lung): > 100 µM
GI50 (HS 578T breast): 33.3 µM
TGI (HS 578T breast): > 100 µM
